Here are results for 4 compounds from US12083079B2, “Sphingoid compounds for prophylaxis and/or therapy of a viral infection” (priority 2018, dated 2024).

In data set [1] the test system is lymphocytic choriomeningitis virus (LCMV). It counts as cell-based.
In data set [2] the test system is vesicular stomatitis virus (VSV). Type of data set: cell-based.
The nature of data set [3]: Surface sphingosine in nasal mucosa after intranasal application, in situ sphingosine kinase assay. To be noted: wild-type mice. Type of data set: in vivo. As to the method:
Sphingosine (SPH) was applied into the nose of wild-type mice and the concentration of sphingosine on the epithelial cell surface was determined after 1, 4 and 8 hrs (a.i.: after injection of sphingosine). To this end, 10 μl, of a 10 μM or a 100 μM sphingosine solution was applied into the nostrils of wild-type mice. Controls received the solvent, i.e. octylglucopyranoside at the same concentration used when sphingosine was applied, or were left untreated. Mice were slightly and very briefly anesthetized with ether. For the intranasal application we used a blunt-end 30 g needle that was covered with a thin plastic film. The blunt-ended needle was inserted into the nostrils approximately 2 mm. Mice were sacrificed after the indicated time, the nasal bone was removed, placed on a 30° C. pre-warmed plastic plate and an area of 2 mm×2 mm was immediately incubated with 0.001 units of sphingosine kinase 1 (#6068-SK-010, R&D) in 4 μl of 150 mM sodium acetate (pH 7.4), 1 μM ATP, and 10 μCi [^32P]γATP/sample. Controls were incubated with the same buffer without sphingosine kinase or were left untreated. […] The TLC plates were analyzed with a phosphoimager. Surface sphingosine levels were determined with a standard curve of C18-sphingosine. […]

Data set [4] concerns RV1b. Briefly: Binding of sphingosine to RV1b immobilized to agarose beads, remaining sphingosine by kinase assay. The arrangement: species or system rhinovirus. To be noted: 250 μM sphingosine in PBS (pH 7.0), 4 hrs at 4° C. As to the method:
As a complement to the above study, RV1b (obtained from ATCC) were immobilized to agarose beads and tested for binding of sphingosine (SPH). To this end, we incubated 1 μg/ml anti-RV1b antibodies with 10^6 CFU RV1b for 1 h at 4° C. in H/S, added 50 μL agarose protein A/G beads (Santa Cruz Inc.), incubated for an additional 1 h at 4° C. and washed the immobilized precipitates 5-times in H/S. We resuspended the beads in 500 μL PBS (pH 7.0) containing 250 μM sphingosine. Samples were incubated for 4 hrs at 4° C., pelleted and aliquots of the supernatants were added to 50 mM HEPES (pH 7.4), 250 mM NaCl, 30 mM MgCl2, 0.001 units sphingosine kinase (R&D), 1 mM ATP and 10 μCi [^32P]γATP. The kinase reaction was performed for 1 hr at 30° C., stopped by addition of 20 μl 1N HCl, 800 μl CHCl3/CH3OH/1N HCl (100:200:1, v/v/v), 240 μl CHCl3 and 2 M KCl. Phases were separated, the lower phase was collected, dried, dissolved in 20 μL of CHCl3:CH3OH (1:1, v/v) and separated on Silica G60 thin layer chromatography (TLC) plates using CHCl3/CH3OH/acetic acid/H2O (90:90:15:5, v/v/v/v). The TLC plates were exposed to radiography films, spots were removed from the plates, and the incorporation of [^32P] into sphingosine measured by liquid scintillation counting. Sphingosine was determined using a standard curve of C18-SPH. […]

The test system of data set [5] is rhinovirus 14 (RV14). The data set can be described thus: RV14 infection of freshly isolated human epithelial cells, Hela cytotoxicity readout. Type of data set: cell-based. To be noted: 10 μM or 20 μM, 24 hrs. On the procedure:
(§1) 10^4 PFU of Rhinovirus 2 or 14 (RV2, RV14) were incubated with freshly isolated human epithelial cells for 24 hrs in the presence of 10 μM or 20 μM sphingosine (SPH) or the corresponding concentration of the solvent octylglucopyranoside (OGP), the cells were pelleted, supernatants completely removed, the cell pellets resuspended in PBS and added to Hela cells. Cells were incubated for 3 days and cytotoxicity as measurement for virus titers was determined. Shown is the mean±SD, n=4, *p<0.001 ANOVA.

Data set [6] relates to rhinovirus strain RV14 (major strain). The data set can be described thus: Rhinovirus RV14 infection of Hela cells, dead cells by Trypan Blue. It counts as cell-based. To be noted: added 10 min before or 60 min or 240 min after infection, 4 days.
In data set [7] the test system is rhinovirus 2 (RV2). Briefly: RV2 infection of freshly isolated human epithelial cells, Hela cytotoxicity readout. Type of data set: cell-based. The following applies: 10 μM or 20 μM, 24 hrs. As to the method: as §1
Data set [8] has as its system Hela cells. The following applies: uninfected Hela cells, 10 μM or 20 μM.
The test system of data set [9] is epithelial cells of the nose. Briefly: Dead nasal epithelial cells after intranasal sphingosine (Trypan Blue). Type of data set: in vivo. The following applies: wild-type mice, 10 μL of 10 μM or 100 μM solution intranasal; 8 hours or 24 hours. On the procedure: Sphingosine was applied into the nose of wild-type mice as in 3.2. 10 μL of a 10 μM or a 100 μM sphingosine (SPH) solution was administered into the nostrils of wild-type mice. Controls received the solvent, i.e. octylglucopyranoside at the same concentration used when sphingosine was applied, or were left untreated. Mice were anesthetized prior to application of sphingosine. Mice were sacrificed after 8 hours or 24 hours, the nasal bone was removed and incubated in Trypsin solution for 10 min to release and isolate epithelial cells. Cells were washed twice in H/S (20 mM HEPES, 132 mM NaCl, 5 mM KCl, 1 mM CaCl2), 0.7 mM MgCl2, 0.8 mM MgSO4, pH 7.4), stained with Trypan Blue (0.2% final concentration) and dead cells were counted in aliquots of 500 cells. Given is the percentage of dead cells±SD from 4 independent experiments each; *p<0.05, ANOVA.

The test system of data set [10] is rhinovirus strain RV2 (minor strain). The data set can be described thus: Rhinovirus RV2 infection of Hela cells, dead cells by Trypan Blue. The following applies: added 10 min before or 60 min or 240 min after infection, 4 days. Type of data set: cell-based.
Data set [11] relates to rhinovirus strain 2 (RV2). The data set can be described thus: Intranasal RV2 infection of wild-type mice, Hela cell death bioassay of nasal bone. To be noted: 10 μL of 100 μM intranasal, 10 min prior to or 1, 4 or 8 hrs after infection, sacrificed after 24 hrs. It counts as in vivo. On the procedure:
Mice were infected with 10^3 PFU rhinovirus strain 2 (RV2) in 10 μL PBS. The virus was applied directly into the nose using a blunt ended, plastic coated 30 g needle, that was inserted into the nose approximately 2 mm. Sphingosine (SPH) was applied into the nose of the wild-type mice at a concentration of 100 μM solution in PBS in a volume of 10 μL. Sphingosine was applied either 10 min prior to rhinovirus infection (b.i.) or 1 hr, 4 hrs and 8 hrs after the infection (a.i.). Controls received the solvent, i.e. octylglucopyranoside (OGP) at the same concentration than used when sphingosine was applied, or were left untreated, but infected. Solutions were applied as in 3.2. Mice were sacrificed after 24 hrs, the nasal bone was removed and incubated for 4 days with Hela cells in a 24 well plate. If the nasal epithelial cells are infected, rhinovirus will be released due to the cytopathic effect of the virus and the in vivo infection can then be determined and quantified by measuring cell death of Hela cells as a bioassay. To this end, dead cells were collected, adherent cells were trypsinized, the fractions were combined, washed twice in H/S (20 mM HEPES, 132 mM NaCl, 5 mM KCl, 1 mM CaCl2), 0.7 mM MgCl2, 0.8 mM MgSO4, pH 7.4), stained with Trypan Blue (0.2% final concentration) and dead cells were counted in aliquots of 500 cells as above. […]

The test system of data set [12] is HIV-1 JR-CSF. The data set can be described thus: HIV-P24 ELISA in supernatant of infected human T cells. Type of data set: cell-based. To be noted: 50 μM, after 7 days.
Data set [13] relates to lymphocytic choriomeningitis virus (LCMV). Type of data set: cell-based. The source holds these as a separate data set.

As to sphingomyelinase, the “virus production (infectious LCMV particles in the supernatant)” value in data set [1] was “inhibits the propagation of LCMV”. The number of plaques entry in [2] is on record as “inhibits the propagation of VSV”.

On to `CCCCCCCCCCCCC/C=C/[C@@H](O)[C@@H](N)CO` [sphingosine, (2S,3R,4E)-2-amino-4-octadecene-1,3-diol], for which, in data set [3] (10 μl of 10 μM or 100 μM solution into the nostrils, 1, 4 and 8 hrs), the “surface sphingosine concentration in nasal mucosa” value is reported as “dose-dependent accumulation of sphingosine in the mucosa”. The “surface sphingosine concentration after washing the mucosa in PBS” value in data set [3] (washing prior to the in situ kinase assay) was “reduces sphingosine accumulation”. Besides, the “binding of sphingosine to RV1b-coupled agarose beads (remaining sphingosine in the supernatant)” value in data set [4] is “efficiently bind sphingosine”. In [1], the “virus production (infectious LCMV particles in the supernatant)” value is reported as “inhibits the propagation of LCMV”. The “infection of human epithelial cells by RV14 (cytotoxicity as measurement for virus titers)” value in data set [5] is recorded as “abrogates infection”. The “infection with RV14 (percentage of dead cells)” value in data set [6] (10 μM) and in data set [6] (20 μM) was “prevented the infection” each time. Further, the “infection of human epithelial cells by RV2 (cytotoxicity as measurement for virus titers)” value in data set [7] is on record as “abrogates infection”. Moreover, the “effect of sphingosine itself on the cells (percentage of dead cells)” value in data set [8] is reported as “had no effect on the cells”. In [9], the “toxic effects (percentage of dead nasal epithelial cells)” value was “no toxic effects on epithelial cells of the nose”. Moreover, the “infection with RV2 (percentage of dead cells)” value in data set [10] (10 μM) and in data set [10] (20 μM) was “prevented the infection” each time. Moreover, the “infection with RV2 in vivo (percentage of dead Hela cells, bioassay)” value in data set [11] is listed as “prevented”.

MP A08: in data set [12], the “amount of HIV-P24 in the supernatant” value is “prevents the propagation of HIV”.

Turning to `Oc1ccc(Nc2nc(-c3ccc(Cl)cc3)cs2)cc1` [SKII, 2-(p-hydroxyanilino)-4-(p-chlorophenyl)thiazole], the “virus-infected cells by immunofluorescence” value in data set [13] is “inhibits the spreading of the virus”.
